ChEMBL document CHEMBL1201862, “PubChem BioAssay data set” (2004)
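Each compound was tested at five concentrations against cells in 96-well plates for 48 hours. Abbreviation: GI50, concentration required for 50% inhibition of growth.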 Activity calls are given as the source filed them. Rule as the data show it: active = GI50 up to about 1.1 µM and inactive = higher.

How the values were obtained:
Test in all cases: NCI-60 cell line screen, 48 h
A498 = system: A498
IGROV-1 = system: IGROV-1
K562 = system: K562
LOX IMVI = system: LOX IMVI
M14 = system: M14
MDA-MB-231 = system: MDA-MB-231
MOLT-4 = system: MOLT-4
Malme-3M = system: Malme-3M
NCI-H226 = system: NCI-H226
NCI-H23 = system: NCI-H23
NCI/ADR-RES = system: NCI/ADR-RES
RXF 393 = system: RXF 393
SK-MEL-28 = system: SK-MEL-28
SNB-19 = system: SNB-19
SNB-75 = system: SNB-75
SR = system: SR
UACC-257 = system: UACC-257
UACC-62 = system: UACC-62
UO-31 = system: UO-31
HL-60 = system: HL-60

Row | Structure (SMILES) | GI50 (A498) | GI50 (IGROV-1) | GI50 (K562) | GI50 (LOX IMVI) | GI50 (M14) | GI50 (MDA-MB-231) | GI50 (MOLT-4) | GI50 (Malme-3M) | GI50 (NCI-H226) | GI50 (NCI-H23) | GI50 (NCI/ADR-RES) | GI50 (RXF 393) | GI50 (SK-MEL-28) | GI50 (SNB-19) | GI50 (SNB-75) | GI50 (SR) | GI50 (UACC-257) | GI50 (UACC-62) | GI50 (UO-31) | GI50 (HL-60)
1 | CCC/C=C/c1cc2c(cc1O)CC[C@@H]1[C@@H]2CC[C@]2(C)[C@@H](O)CC[C@@H]12 | 17.2 µM (inactive) | 21.1 µM (inactive) | 16.8 µM (inactive) | 14.8 µM (inactive) | 20.3 µM (inactive) | 15.5 µM (inactive) | 18.3 µM (inactive) | 16.5 µM (inactive) | 24.7 µM (inactive) | 17.5 µM (inactive) | 18.5 µM (inactive) | 16.3 µM (inactive) | 19.3 µM (inactive) | 23.6 µM (inactive) | 16.4 µM (inactive) | 15.4 µM (inactive) | 15.8 µM (inactive) | 14.5 µM (inactive) | 16.3 µM (inactive) | 
2 | O=C(O)/C=C/C(=O)N1Cc2cc3ccccc3nc2C1 |  | > 100 µM (inactive) | > 100 µM (inactive) | > 100 µM (inactive) | > 100 µM (inactive) | > 100 µM (inactive) | > 100 µM (inactive) | > 100 µM (inactive) | > 100 µM (inactive) | > 100 µM (inactive) | > 100 µM (inactive) | > 100 µM (inactive) | > 100 µM (inactive) | > 100 µM (inactive) | > 100 µM (inactive) | > 100 µM (inactive) | > 100 µM (inactive) | > 100 µM (inactive) | > 100 µM (inactive) | > 100 µM (inactive)
3 | c1ccc2c(c1)/C(=N\NC1=NCCN1)c1nc3ccccc3nc1-2 |  | 6.12 µM (inactive) | 4.52 µM (inactive) |  | 6.65 µM (inactive) | 10.5 µM (inactive) | 1.13 µM (inactive) | 10.2 µM (inactive) | 3.63 µM (inactive) | 8.73 µM (inactive) | 5.85 µM (inactive) | 2.71 µM (inactive) | 13.5 µM (inactive) | 6.44 µM (inactive) | 0.923 µM (active) | 3.98 µM (inactive) | 5.31 µM (inactive) | 2.49 µM (inactive) |  | 3.83 µM (inactive)
4 | NCCC1CN(C(=O)OCc2ccccc2)c2ccccc21 (stereo not given) | > 37.2 µM (inactive) | 9.48 µM (inactive) | 4.58 µM (inactive) | 4.12 µM (inactive) | 13.8 µM (inactive) | 19.1 µM (inactive) | 12 µM (inactive) | 14.8 µM (inactive) | 12 µM (inactive) | 15 µM (inactive) | 15.1 µM (inactive) | 8.45 µM (inactive) | 18.6 µM (inactive) | 19.5 µM (inactive) | 12.3 µM (inactive) | 2.9 µM (inactive) | 17.3 µM (inactive) | 15.6 µM (inactive) | 12.7 µM (inactive) | 
5 | O=C(/C=C/c1csc(-c2ccccc2)n1)NCc1ccc(C(=O)NCc2ccccc2)cc1 | 64.9 µM (inactive) | 37.2 µM (inactive) | > 100 µM (inactive) | > 100 µM (inactive) | > 100 µM (inactive) | 18.7 µM (inactive) | > 100 µM (inactive) | 92 µM (inactive) | > 100 µM (inactive) | > 100 µM (inactive) | 50.8 µM (inactive) | 61 µM (inactive) | > 100 µM (inactive) | 26.5 µM (inactive) | 19.2 µM (inactive) | > 100 µM (inactive) | > 100 µM (inactive) | > 100 µM (inactive) | > 100 µM (inactive) | 
6 | CCOC(=O)N/N=C(\Cc1ccccc1)OCC |  | > 100 µM (inactive) | > 100 µM (inactive) | > 100 µM (inactive) | > 100 µM (inactive) | > 100 µM (inactive) | > 100 µM (inactive) |  |  | > 100 µM (inactive) | > 100 µM (inactive) | > 100 µM (inactive) |  | > 100 µM (inactive) | > 100 µM (inactive) | > 100 µM (inactive) | > 100 µM (inactive) | > 100 µM (inactive) | > 100 µM (inactive) | 
7 | CC(=O)N1C(OC(C)C)CC(C)N1c1ccccc1 (stereo not given) |  | > 10 µM (inactive) | > 10 µM (inactive) | > 10 µM (inactive) | > 10 µM (inactive) | > 10 µM (inactive) | > 10 µM (inactive) | > 10 µM (inactive) | > 10 µM (inactive) | > 10 µM (inactive) | > 10 µM (inactive) | > 10 µM (inactive) | > 10 µM (inactive) | > 10 µM (inactive) | > 10 µM (inactive) | > 10 µM (inactive) | > 10 µM (inactive) |  |  | > 10 µM (inactive)
8 | CC1=CC(=O)C(=C(C)C)CC1 |  | > 100 µM (inactive) | > 100 µM (inactive) | > 100 µM (inactive) | > 100 µM (inactive) | > 100 µM (inactive) | > 100 µM (inactive) | > 100 µM (inactive) | > 100 µM (inactive) | > 100 µM (inactive) | > 100 µM (inactive) | 26.1 µM (inactive) | > 100 µM (inactive) | > 100 µM (inactive) | > 100 µM (inactive) | 48 µM (inactive) | > 100 µM (inactive) | > 100 µM (inactive) | > 100 µM (inactive) | 53.6 µM (inactive)
9 | ON[C@H]1C[C@@H](n2cnc3c(NC4CC4)ncnc32)[C@H](O)[C@@H]1O | > 100 µM (inactive) | > 100 µM (inactive) | > 100 µM (inactive) | > 100 µM (inactive) | > 100 µM (inactive) | > 100 µM (inactive) | > 100 µM (inactive) | > 100 µM (inactive) | > 100 µM (inactive) | > 100 µM (inactive) | > 100 µM (inactive) | > 100 µM (inactive) | > 100 µM (inactive) | > 100 µM (inactive) | > 100 µM (inactive) | > 100 µM (inactive) | > 100 µM (inactive) | > 100 µM (inactive) | > 100 µM (inactive) | 
10 | CC(=O)Oc1cc(OC(C)=O)c2c(C)cc(=O)oc2c1 | 41 µM (inactive) | 95.7 µM (inactive) | > 100 µM (inactive) | > 100 µM (inactive) | 87.3 µM (inactive) | > 100 µM (inactive) | > 100 µM (inactive) | > 100 µM (inactive) | > 100 µM (inactive) | > 100 µM (inactive) | > 100 µM (inactive) |  | > 100 µM (inactive) | > 100 µM (inactive) | 66.8 µM (inactive) | > 100 µM (inactive) | > 100 µM (inactive) | > 100 µM (inactive) | 67.3 µM (inactive) | 
11 | CC1(c2nc3cc(Cl)c(Cl)cc3[nH]2)CCC(CO)C(C)(C)O1 (stereo not given) |  | 20.9 µM (inactive) | 36.7 µM (inactive) | 27.7 µM (inactive) | 26.2 µM (inactive) | 22.8 µM (inactive) | 24.5 µM (inactive) | 24.5 µM (inactive) | 12.4 µM (inactive) | 25.6 µM (inactive) | 17.7 µM (inactive) | 47.4 µM (inactive) | 24.8 µM (inactive) | 54.1 µM (inactive) | 14.8 µM (inactive) | 19.9 µM (inactive) | 29.6 µM (inactive) | 17.6 µM (inactive) | 15.1 µM (inactive) | 15 µM (inactive)
12 | CC(C)(C)c1cc(CC2C(=O)c3ccccc3C2=O)cc(C(C)(C)C)c1O | 13.3 µM (inactive) | 5.45 µM (inactive) | 3.13 µM (inactive) | 3.81 µM (inactive) | 2.69 µM (inactive) | 2.59 µM (inactive) | 2.5 µM (inactive) |  |  | 4.22 µM (inactive) | 2.69 µM (inactive) |  |  | 2.94 µM (inactive) |  | 2.88 µM (inactive) | 3.21 µM (inactive) | 3.58 µM (inactive) | 2.95 µM (inactive) | 2.54 µM (inactive)
13 | O=C1O/C(=C\C=C\CO)C=C1/C=C/CO [LISSOCLINOLIDE] |  | 16 µM (inactive) | 31.2 µM (inactive) | 35.6 µM (inactive) | 20.2 µM (inactive) | 21.3 µM (inactive) | 50.6 µM (inactive) | 13.8 µM (inactive) | 36.5 µM (inactive) | 18.5 µM (inactive) | 33.3 µM (inactive) | 19 µM (inactive) | 24.4 µM (inactive) | 23.5 µM (inactive) | > 100 µM (inactive) | 34.9 µM (inactive) |  | 18.9 µM (inactive) | 16.5 µM (inactive) | 29.3 µM (inactive)
14 | CSc1ccc(-c2cc(-c3nc4ccccc4[nH]3)no2)cc1 | 30.8 µM (inactive) | 23.2 µM (inactive) | 22.1 µM (inactive) | 24.3 µM (inactive) | 20.4 µM (inactive) | 40.6 µM (inactive) | 8.34 µM (inactive) | 35 µM (inactive) | 40.5 µM (inactive) | 19.1 µM (inactive) | 23.2 µM (inactive) |  | 27.6 µM (inactive) | 40.3 µM (inactive) | 37.6 µM (inactive) | 23.6 µM (inactive) | 30.2 µM (inactive) | 16.4 µM (inactive) | 13.1 µM (inactive) | 21.6 µM (inactive)
15 | O=C(N/N=C/c1ccc(O)cc1)NNCCO | > 100 µM (inactive) | > 100 µM (inactive) | > 100 µM (inactive) |  | > 100 µM (inactive) | > 100 µM (inactive) | > 100 µM (inactive) | > 100 µM (inactive) | > 100 µM (inactive) | > 100 µM (inactive) | > 100 µM (inactive) |  | > 100 µM (inactive) | > 100 µM (inactive) | 50.5 µM (inactive) | > 100 µM (inactive) | > 100 µM (inactive) | > 100 µM (inactive) | > 100 µM (inactive) | > 100 µM (inactive)
